Literature values, collected in patent US20040228830A1 (Collegium Pharmaceutical, Inc., priority 2003, published 2004).

Key:
[1] = 200 mg/day
[2] = human, in vivo
[3] = 75-100 mg/day twice daily for 8 weeks, elderly patients with depression
[4] = intravenous, 10 patients
[5] = after one week of dose escalation
uptake of dopamine = uptake of dopamine (Homo sapiens, UniProt Q01959)
[6] = test system: beta adrenoceptors in rat cortex; conditions: after chronic administration
[7] = metabolism in the liver

Sequence of uptake of dopamine (Q01959 whole entry): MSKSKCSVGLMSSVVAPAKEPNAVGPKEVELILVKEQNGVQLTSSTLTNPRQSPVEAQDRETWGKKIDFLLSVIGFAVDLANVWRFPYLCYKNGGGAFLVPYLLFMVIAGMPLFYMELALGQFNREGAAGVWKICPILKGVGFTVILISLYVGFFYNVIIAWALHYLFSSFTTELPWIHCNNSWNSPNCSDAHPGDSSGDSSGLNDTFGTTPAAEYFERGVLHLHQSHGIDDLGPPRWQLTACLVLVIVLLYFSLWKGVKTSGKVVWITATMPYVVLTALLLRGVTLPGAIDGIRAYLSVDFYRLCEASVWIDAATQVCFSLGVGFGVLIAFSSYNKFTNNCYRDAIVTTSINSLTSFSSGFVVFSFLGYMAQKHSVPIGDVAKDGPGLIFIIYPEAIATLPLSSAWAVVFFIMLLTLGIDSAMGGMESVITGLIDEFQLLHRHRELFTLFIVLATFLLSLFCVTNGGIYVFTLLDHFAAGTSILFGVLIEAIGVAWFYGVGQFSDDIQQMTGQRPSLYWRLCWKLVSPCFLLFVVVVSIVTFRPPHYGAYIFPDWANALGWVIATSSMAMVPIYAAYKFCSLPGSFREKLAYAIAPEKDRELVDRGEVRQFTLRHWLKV

SMILES: CCN(CC)C(=O)C1(c2ccccc2)CC1CN (stereo not shown) [milnacipran, Milnacipran]
- antidepressant efficacy versus lower doses [1]: superior to the lower doses
- toxicity in humans [2]: non-toxic
- most common dose-related side effect reported by patients (four weeks dose escalation): nausea
- pain improvement (twice-a-day administration of immediate release formulation, fibromyalgia): statistically superior to that of placebo treatment
- only adverse event reported more frequently for milnacipran recipients than for imipramine recipients [3]: nausea
- patients reporting transient nausea [4]: five
- most commonly reported reason for discontinuation of treatment because of adverse effects [5]: nausea and vomiting
- effect on the uptake of dopamine (uptake of dopamine): does not affect
- effect on the number of beta adrenoceptors in rat cortex [6]: does not affect
- number of chemically identified metabolites [7]: ten
